Format in all cases: tissue-based
For assay [1], the target named is T1, Serotonin 3 (5-HT3) receptor (Rattus norvegicus, UniProt P35563+Q9JJ16).
T1 sequence (P35563 whole entry): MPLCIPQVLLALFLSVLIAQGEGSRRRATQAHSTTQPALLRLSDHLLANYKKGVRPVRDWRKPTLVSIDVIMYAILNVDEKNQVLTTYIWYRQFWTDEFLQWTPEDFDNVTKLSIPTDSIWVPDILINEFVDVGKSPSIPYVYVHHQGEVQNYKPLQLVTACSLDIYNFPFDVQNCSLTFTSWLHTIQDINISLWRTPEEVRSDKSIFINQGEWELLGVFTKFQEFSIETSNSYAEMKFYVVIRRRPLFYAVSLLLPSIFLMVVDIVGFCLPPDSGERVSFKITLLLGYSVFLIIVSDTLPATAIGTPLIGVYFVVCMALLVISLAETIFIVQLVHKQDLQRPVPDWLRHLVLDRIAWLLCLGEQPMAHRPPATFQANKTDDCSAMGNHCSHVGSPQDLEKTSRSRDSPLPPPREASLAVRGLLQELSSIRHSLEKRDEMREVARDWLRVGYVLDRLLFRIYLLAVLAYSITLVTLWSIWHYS
T1 sequence (Q9JJ16 whole entry): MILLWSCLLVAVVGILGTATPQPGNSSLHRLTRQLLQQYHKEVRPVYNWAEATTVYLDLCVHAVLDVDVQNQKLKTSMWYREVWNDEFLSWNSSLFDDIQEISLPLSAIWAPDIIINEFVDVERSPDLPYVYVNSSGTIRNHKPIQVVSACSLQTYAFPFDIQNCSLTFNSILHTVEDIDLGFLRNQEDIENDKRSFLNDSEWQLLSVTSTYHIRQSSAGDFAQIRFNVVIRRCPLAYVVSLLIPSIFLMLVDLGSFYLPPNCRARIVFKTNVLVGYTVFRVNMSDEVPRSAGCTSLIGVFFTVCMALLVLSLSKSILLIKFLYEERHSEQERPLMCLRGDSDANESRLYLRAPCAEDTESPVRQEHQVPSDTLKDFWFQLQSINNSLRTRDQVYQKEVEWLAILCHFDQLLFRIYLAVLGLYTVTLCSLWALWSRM
Briefly: Binding affinity against 5-hydroxytryptamine 3 receptor using [3H]BRL-43694 as radioligand in rat posterior cortex.

Assay [2] concerns the target 5-hydroxytryptamine receptor 4 (Rattus norvegicus, UniProt Q62758). In words: Binding affinity against 5-hydroxytryptamine 4 receptor using [3H]GR-113808 as radioligand in rat striatum.
Another assay has as its target D(2) dopamine receptor (Rattus norvegicus, UniProt P61169). Briefly: Binding affinity against Dopamine receptor D2 using [3H]spiperone as radioligand in rat striatum.

Each structure is given as a SMILES string.

Chain of 5-hydroxytryptamine receptor 4 (Q62758 whole entry): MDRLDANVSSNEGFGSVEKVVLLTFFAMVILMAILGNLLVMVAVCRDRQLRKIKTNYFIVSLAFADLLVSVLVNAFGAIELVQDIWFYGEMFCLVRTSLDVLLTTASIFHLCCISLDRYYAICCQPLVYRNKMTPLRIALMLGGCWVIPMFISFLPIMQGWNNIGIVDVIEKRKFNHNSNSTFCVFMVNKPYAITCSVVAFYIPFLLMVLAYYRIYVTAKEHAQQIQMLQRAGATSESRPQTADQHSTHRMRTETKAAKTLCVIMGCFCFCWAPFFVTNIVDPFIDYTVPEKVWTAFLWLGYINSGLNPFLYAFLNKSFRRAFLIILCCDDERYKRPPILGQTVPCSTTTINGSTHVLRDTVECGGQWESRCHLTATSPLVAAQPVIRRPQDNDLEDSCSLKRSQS
Chain of D(2) dopamine receptor (P61169 whole entry): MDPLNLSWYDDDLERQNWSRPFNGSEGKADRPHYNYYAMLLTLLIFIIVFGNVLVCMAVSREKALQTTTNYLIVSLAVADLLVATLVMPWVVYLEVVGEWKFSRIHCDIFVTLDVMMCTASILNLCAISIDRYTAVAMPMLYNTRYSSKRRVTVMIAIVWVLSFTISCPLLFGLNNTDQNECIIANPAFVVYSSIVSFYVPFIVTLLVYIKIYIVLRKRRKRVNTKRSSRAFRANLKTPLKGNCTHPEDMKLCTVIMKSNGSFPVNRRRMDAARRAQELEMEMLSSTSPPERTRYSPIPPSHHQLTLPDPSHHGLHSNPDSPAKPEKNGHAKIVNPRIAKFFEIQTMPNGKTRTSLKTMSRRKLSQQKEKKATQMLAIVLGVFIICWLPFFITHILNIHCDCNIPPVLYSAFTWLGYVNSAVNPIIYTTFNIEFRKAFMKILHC

In general, Ki refers to a dissociation constant, usually derived from enzyme kinetics or from competition with a known ligand. `Nc1cc2c(cc1Cl)C(=O)NC1CCN(CCOCCO2)CC1`: the Ki was 0.0532 µM in assay [1], 0.0297 µM in assay [2] and over 1 µM on D(2) dopamine receptor.

Regarding `COc1cc(N)c(Cl)cc1C(=O)NC1CC2CCC(C1)N2Cc1ccccc1` (centres undefined), the Ki in assay [1] is over 1 µM; in assay [2], 0.233 µM; at D(2) dopamine receptor, 0.00028 µM.

`COc1cc(N)c(Cl)cc1C(=O)NC1CCN(C)CC1`: the Ki in assay [1] was 0.267 µM; in assay [2] it was 0.832 µM; at D(2) dopamine receptor it was over 1 µM.

In the case of `COc1cc(N)c(Cl)cc1C(=O)N[C@@H]1CN2CCC1CC2`, the figures for the Ki (in assay [2]; on D(2) dopamine receptor) were 0.383 µM and over 1 µM, respectively.

Take `COc1cc(N)c(Cl)cc1C(=O)NC1CC2CCC(C1)N2C` (stereo in doubt): the Ki in assay [1] was 0.0008 µM; in assay [2] it was 0.048 µM; at D(2) dopamine receptor, over 1 µM.

Take `COc1cc(N)c(Cl)cc1C(=O)NC1CC2CCC(C1)N2C` (stereo in doubt; 5): the values for the Ki (in assay [1]; in assay [2]; on D(2) dopamine receptor) were 0.0418 µM, over 1 µM and over 1 µM, respectively.

For the compound `COc1cc(N)c(Cl)cc1C(=O)NC1CCN(Cc2ccccc2)CC1` [CLEBOPRIDE], the Ki was over 1 µM in assay [1] and 0.104 µM in assay [2].

Source of the values: ChEMBL document CHEMBL1149999, “Synthesis and pharmacological activity of a macrocyclic benzamide” (Bioorg Med Chem Lett, 1995).
